Measured values: patent publication US9539260B2, “Dihydro-benzo-oxazine and dihydro-pyrido-oxazine derivatives” (Novartis AG, priority 2012, dated 2017)

Experiments:
PI3K delta = PI3K delta (Homo sapiens (Human), UniProt O00329); experiment: Enzymatic PI3K delta isoform inhibition (lipid kinase activity, Kinase-Glo luminescence); type: biochemical; details: Enzymatic assay
Method in brief: (§1)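 IC50s derive from 4-parameter logistic fits of % inhibition across 8 concentrations (usually 10 to 0.003 μM). Lipid kinase reaction: PI3K (10 nM) plus phosphatidylinositol (5 μg/mL) started with 2 μM ATP, stopped near 50% ATP depletion; leftover ATP quantified by Kinase-Glo luminescence.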

PI3K alpha = PI3K alpha (Homo sapiens (Human), UniProt P42336); experiment: Enzymatic PI3K alpha isoform inhibition (lipid kinase activity, Kinase-Glo luminescence); type: biochemical; details: Enzymatic assay
Chain of PI3K alpha (P42336 other isoform, or with tags, fused parts or gaps): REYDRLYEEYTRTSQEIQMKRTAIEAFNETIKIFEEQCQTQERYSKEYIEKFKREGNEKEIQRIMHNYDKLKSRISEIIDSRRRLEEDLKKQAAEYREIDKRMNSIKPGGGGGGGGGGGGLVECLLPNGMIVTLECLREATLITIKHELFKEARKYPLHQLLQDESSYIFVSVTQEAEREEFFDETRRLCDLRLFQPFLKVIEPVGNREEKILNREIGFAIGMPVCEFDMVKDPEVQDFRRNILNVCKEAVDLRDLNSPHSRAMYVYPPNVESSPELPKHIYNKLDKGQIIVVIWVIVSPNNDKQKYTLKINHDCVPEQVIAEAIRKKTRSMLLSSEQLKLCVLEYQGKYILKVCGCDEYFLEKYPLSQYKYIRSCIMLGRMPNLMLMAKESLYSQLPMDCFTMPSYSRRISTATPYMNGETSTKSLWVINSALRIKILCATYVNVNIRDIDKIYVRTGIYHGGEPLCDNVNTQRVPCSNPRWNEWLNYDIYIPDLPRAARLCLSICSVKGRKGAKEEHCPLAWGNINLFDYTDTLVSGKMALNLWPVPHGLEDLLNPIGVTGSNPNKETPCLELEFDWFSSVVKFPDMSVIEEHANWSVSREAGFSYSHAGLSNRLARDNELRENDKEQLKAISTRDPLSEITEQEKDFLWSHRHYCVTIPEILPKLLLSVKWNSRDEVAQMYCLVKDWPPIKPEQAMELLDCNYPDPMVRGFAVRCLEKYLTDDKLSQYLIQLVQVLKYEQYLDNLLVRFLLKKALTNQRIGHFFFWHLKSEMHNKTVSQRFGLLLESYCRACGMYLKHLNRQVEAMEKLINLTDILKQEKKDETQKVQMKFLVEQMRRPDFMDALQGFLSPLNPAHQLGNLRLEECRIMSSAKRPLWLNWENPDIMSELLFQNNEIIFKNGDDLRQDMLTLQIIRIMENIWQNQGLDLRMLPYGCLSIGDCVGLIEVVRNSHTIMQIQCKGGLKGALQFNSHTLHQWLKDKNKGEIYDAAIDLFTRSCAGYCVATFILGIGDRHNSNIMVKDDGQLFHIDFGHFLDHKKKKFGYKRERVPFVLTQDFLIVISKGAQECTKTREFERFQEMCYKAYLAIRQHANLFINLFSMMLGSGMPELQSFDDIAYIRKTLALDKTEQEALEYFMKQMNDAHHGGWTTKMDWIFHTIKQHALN
Method in brief: as §1

Chain of PI3K delta (O00329 other isoform, or with tags, fused parts or gaps linker GGGGGG): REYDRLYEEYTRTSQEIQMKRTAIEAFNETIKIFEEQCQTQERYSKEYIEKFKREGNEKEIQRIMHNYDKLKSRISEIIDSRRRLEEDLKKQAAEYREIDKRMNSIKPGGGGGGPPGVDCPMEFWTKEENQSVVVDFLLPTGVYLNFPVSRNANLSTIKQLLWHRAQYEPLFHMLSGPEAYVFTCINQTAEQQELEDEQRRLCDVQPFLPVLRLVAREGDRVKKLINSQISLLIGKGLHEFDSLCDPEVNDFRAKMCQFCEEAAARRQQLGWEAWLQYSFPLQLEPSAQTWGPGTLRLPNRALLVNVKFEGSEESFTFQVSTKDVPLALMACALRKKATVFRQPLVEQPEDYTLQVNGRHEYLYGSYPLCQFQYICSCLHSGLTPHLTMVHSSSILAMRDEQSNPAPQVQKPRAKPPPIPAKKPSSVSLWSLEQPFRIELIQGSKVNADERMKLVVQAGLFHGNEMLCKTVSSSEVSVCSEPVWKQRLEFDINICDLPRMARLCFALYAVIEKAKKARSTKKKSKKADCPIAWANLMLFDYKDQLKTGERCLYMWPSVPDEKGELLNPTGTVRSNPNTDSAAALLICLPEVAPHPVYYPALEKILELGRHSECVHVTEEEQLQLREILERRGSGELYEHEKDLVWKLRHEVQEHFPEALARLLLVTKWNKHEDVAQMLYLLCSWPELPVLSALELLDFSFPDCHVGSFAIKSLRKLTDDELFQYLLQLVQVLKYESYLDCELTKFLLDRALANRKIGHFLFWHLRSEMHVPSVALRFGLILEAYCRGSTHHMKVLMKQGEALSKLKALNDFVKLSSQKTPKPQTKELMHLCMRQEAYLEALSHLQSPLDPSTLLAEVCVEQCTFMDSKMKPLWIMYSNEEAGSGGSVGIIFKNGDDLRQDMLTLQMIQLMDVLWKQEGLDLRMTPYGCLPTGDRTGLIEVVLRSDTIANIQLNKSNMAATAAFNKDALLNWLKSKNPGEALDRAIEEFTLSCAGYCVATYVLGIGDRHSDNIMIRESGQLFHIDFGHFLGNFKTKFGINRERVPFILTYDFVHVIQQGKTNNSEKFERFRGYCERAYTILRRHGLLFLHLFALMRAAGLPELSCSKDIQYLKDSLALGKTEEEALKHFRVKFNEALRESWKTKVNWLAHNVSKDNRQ

Compound	IC50 (PI3K delta) [nM]	IC50 (PI3K alpha) [nM]
COc1ncc(N2CCOc3ccc(O[C@H]4CCN(C(=O)c5cncnc5)C4)cc32)cc1F [Example B104, {(S)-3-[4-(5-Fluoro-6-methoxy-pyridin-3-yl)-3,4-dihydro-2H-benzo[1,4]oxazin-6-yloxy]-pyrrolidin-1-yl}-pyrimidin-5-yl-methanone]	162	1370
COc1ccc(N2CCOc3ccc(O[C@H]4CCN(C(=O)CN(C)C)C4)cc32)cn1 [Example D3, 2-Dimethylamino-1-{(S)-3-[4-(6-methoxy-pyridin-3-yl)-3,4-dihydro-2H-benzo[1,4]oxazin-6-yloxy]-pyrrolidin-1-yl}-ethanone]	219	4420
CCC(=O)N1CC[C@H](Oc2ccc3c(c2)N(c2cncc(C#N)c2)CCO3)C1 [Example A32, 5-[6-((S)-1-Propionyl-pyrrolidin-3-yloxy)-2,3-dihydro-benzo[1,4]oxazin-4-yl]-nicotinonitrile]	74	3200
COc1ncc(N2CCOc3cnc(O[C@H]4CCN(C(=O)C5CCOCC5)C4)cc32)cc1C#N [Example F4, 2-Methoxy-5-{7-[(S)-1-(tetrahydro-pyran-4-carbonyl)-pyrrolidin-3-yloxy]-2,3-dihydro-pyrido[3,4-b][1,4]oxazin-1-yl}-nicotinonitrile]	3	577
CS(=O)(=O)c1ccc(N2CCOc3ccc(O[C@H]4CCN(C(=O)C5CCOCC5)C4)cc32)cn1 [Example A43, {(S)-3-[4-(6-Methanesulfonyl-pyridin-3-yl)-3,4-dihydro-2H-benzo[1,4]oxazin-6-yloxy]-pyrrolidin-1-yl}-(tetrahydro-pyran-4-yl)-methanone]	54	4690
Cc1cc(N2CCOc3ccc(O[C@H]4CCN(C(=O)C5CCS(=O)(=O)CC5)C4)cc32)cnc1Cl [Example B60, {(S)-3-[4-(6-Chloro-5-methyl-pyridin-3-yl)-3,4-dihydro-2H-benzo[1,4]oxazin-6-yloxy]-pyrrolidin-1-yl}-(1,1-dioxo-hexahydro-1lambda*6*-thiopyran-4-yl)-methanone]	11	463
COc1ncc(N2CCOc3ccc(O[C@H]4CCN(C(=O)c5cncn5C)C4)cc32)cc1C#N [Example D31, 2-Methoxy-5-{6-[(S)-1-(3-methyl-3H-imidazole-4-carbonyl)-pyrrolidin-3-yloxy]-2,3-dihydro-benzo[1,4]oxazin-4-yl}-nicotinonitrile]	9	135
CS(=O)(=O)c1ncc(N2CCOc3ccc(O[C@H]4CCN(C(=O)C5CCOCC5)C4)cc32)cc1C(F)(F)F [Example B69, {(S)-3-[4-(6-Methanesulfonyl-5-trifluoromethyl-pyridin-3-yl)-3,4-dihydro-2H-benzo[1,4]oxazin-6-yloxy]-pyrrolidin-1-yl}-(tetrahydro-pyran-4-yl)-methanone]	5	189
COc1ncc(N2CCOc3ccc(O[C@H]4CCN(C(=O)C5CCS(=O)(=O)CC5)C4)cc32)cc1C [Example B93, (1,1-Dioxo-hexahydro-1lambda*6*-thiopyran-4-yl)-{(S)-3-[4-(6-methoxy-5-methyl-pyridin-3-yl)-3,4-dihydro-2H-benzo[1,4]oxazin-6-yloxy]-pyrrolidin-1-yl}-methanone]	4	525
CCC(=O)N1CC[C@H](Oc2ccc3c(c2)N(c2cncc(S(C)(=O)=O)c2)CCO3)C1 [Example A37, 1-{(S)-3-[4-(5-Methanesulfonyl-pyridin-3-yl)-3,4-dihydro-2H-benzo[1,4]oxazin-6-yloxy]-pyrrolidin-1-yl}-propan-1-one]	78	370
COc1cncc(N2CCOc3ccc(O[C@H]4CCN(C(=O)C5CCOCC5)C4)cc32)c1 [Example A33, {(S)-3-[4-(5-Methoxy-pyridin-3-yl)-3,4-dihydro-2H-benzo[1,4]oxazin-6-yloxy]-pyrrolidin-1-yl}-(tetrahydro-pyran-4-yl)-methanone]	85	1700
COc1cc(N2CCOc3ccc(O[C@H]4CCN(C(=O)[C@H]5CC[C@H](O)CC5)C4)cc32)cnc1OC [Example B66, {(S)-3-[4-(5,6-Dimethoxy-pyridin-3-yl)-3,4-dihydro-2H-benzo[1,4]oxazin-6-yloxy]-pyrrolidin-1-yl}-(4-hydroxy-cyclohexyl)-methanone]	11	446
COc1ncc(N2CCOc3ccc(O[C@H]4CCN(C(=O)C5COCCO5)C4)cc32)cc1F (single isomer, unassigned) [Example H16]	16	871
COc1cc(N2CCOc3ccc(O[C@H]4CCN(C(=O)C5CCS(=O)(=O)CC5)C4)cc32)cnc1Cl [Example B56, {(S)-3-[4-(6-Chloro-5-methoxy-pyridin-3-yl)-3,4-dihydro-2H-benzo[1,4]oxazin-6-yloxy]-pyrrolidin-1-yl}-(1,1-dioxo-hexahydro-1lambda*6*-thiopyran-4-yl)-methanone]	23	1420
COc1ncc(N2CCOc3ccc(O[C@H]4CCN(C(=O)C5CCS(=O)(=O)C5)C4)cc32)cc1C (single isomer, unassigned) [Example B27, (1,1-Dioxo-tetrahydro-1lambda*6*-thiophen-3-yl)-{(S)-3-[4-(6-methoxy-5-methyl-pyridin-3-yl)-3,4-dihydro-2H-benzo[1,4]oxazin-6-yloxy]-pyrrolidin-1-yl}-methanone]	55	2510
COc1ncc(N2CCOc3ccc(O[C@H]4CCN(C(=O)C5CCC(=O)N5)C4)cc32)cc1C#N (stereo partly drawn) [Example C23, 2-Methoxy-5-{6-[(S)-1-(5-oxo-pyrrolidine-2-carbonyl)-pyrrolidin-3-yloxy]-2,3-dihydro-benzo[1,4]oxazin-4-yl}-nicotinonitrile]	32	658
COc1cc(N2CCOc3ccc(O[C@H]4CCN(C(=O)C5CCOC5)C4)cc32)cnc1OC (stereo partly drawn) [Example B40, {(S)-3-[4-(5,6-Dimethoxy-pyridin-3-yl)-3,4-dihydro-2H-benzo[1,4]oxazin-6-yloxy]-pyrrolidin-1-yl}-(tetrahydro-furan-3-yl)-methanone]	12	249
CCC(=O)N1CC[C@H](Oc2ccc3c(c2)N(c2cnc(N)c(OC)c2)CCO3)C1 [Example A14, 1-{(S)-3-[4-(6-Amino-5-methoxy-pyridin-3-yl)-3,4-dihydro-2H-benzo[1,4]oxazin-6-yloxy]-pyrrolidin-1-yl}-propan-1-one]	5400	> 9100
COc1ncc(N2CCOc3cnc(O[C@H]4CCN(C(=O)c5cn(C)cn5)C4)cc32)cc1C(F)(F)F [Example E7, {(S)-3-[1-(6-Methoxy-5-trifluoromethyl-pyridin-3-yl)-2,3-dihydro-1H-pyrido[3,4-b][1,4]oxazin-7-yloxy]-pyrrolidin-1-yl}-(1-methyl-1H-imidazol-4-yl)-methanone]	22	133
COc1ncc(N2CCOc3ccc(O[C@H]4CCN(C(=O)CC#N)C4)cc32)cc1F [Example B116, 3-{(S)-3-[4-(5-Fluoro-6-methoxy-pyridin-3-yl)-3,4-dihydro-2H-benzo[1,4]oxazin-6-yloxy]-pyrrolidin-1-yl}-3-oxo-propionitrile]	22	304
COc1ncc(N2CCOc3ccc(O[C@H]4CCN(C(=O)[C@@H]5CCNC5)C4)cc32)cc1C#N [Example D40, 2-methoxy-5-{6-[(S)-1-((R)-pyrrolidine-3-carbonyl)-pyrrolidin-3-yloxy]-2,3-dihydro-benzo[1,4]oxazin-4-yl}-nicotinonitrile]	25	704
COc1ncc(N2CCOc3ccc(O[C@H]4CCN(C(=O)C5CCS(=O)(=O)CC5)C4)cc32)cc1C#N [Example D16, 5-{6-[(S)-1-(1,1-Dioxo-hexahydro-1lambda*6*-thiopyran-4-carbonyl)-pyrrolidin-3-yloxy]-2,3-dihydro-benzo[1,4]oxazin-4-yl}-2-methoxy-nicotinonitrile]	7	503
Cc1cc(N2CCOc3cnc(O[C@H]4CCN(C(=O)c5cn(C)cn5)C4)cc32)cnc1OC(F)F [Example E10, {(S)-3-[1-(6-Difluoromethoxy-5-methyl-pyridin-3-yl)-2,3-dihydro-1H-pyrido[3,4-b][1,4]oxazin-7-yloxy]-pyrrolidin-1-yl}-(1-methyl-1H-imidazol-4-yl)-methanone]	13	229
COc1ncc(N2CCOc3cnc(O[C@H]4CCN(C(=O)C5CCS(=O)(=O)CC5)C4)cc32)cc1C(F)(F)F [Example E6, (1,1-Dioxo-hexahydro-1lambda*6*-thiopyran-4-yl)-{(S)-3-[1-(6-methoxy-5-trifluoromethyl-pyridin-3-yl)-2,3-dihydro-1H-pyrido[3,4-b][1,4]oxazin-7-yloxy]-pyrrolidin-1-yl}-methanone]	9	341
COc1ncc(N2CCOc3ccc(O[C@H]4CCN(C(=O)C5CCS(=O)(=O)C5)C4)cc32)cc1Cl (single isomer, unassigned) [Example H14]	5	103
COc1ncc(N2CCOc3ccc(O[C@H]4CCN(C(=O)c5oc(C)nc5C)C4)cc32)cc1C#N [Example C20, 5-{6-[(S)-1-(2,4-Dimethyl-oxazole-5-carbonyl)-pyrrolidin-3-yloxy]-2,3-dihydro-benzo[1,4]oxazin-4-yl}-2-methoxy-nicotinonitrile]	6	193
Cc1cc(N2CCOc3ccc(O[C@H]4CCN(C(=O)C5CCS(=O)(=O)C5)C4)cc32)cnc1S(C)(=O)=O (some centres unmarked) [Example H2]	13	913
COc1ncc(N2CCOc3ccc(O[C@H]4CCN(C(=O)CS(C)(=O)=O)C4)cc32)cc1C#N [Example C11, 5-{6-[(S)-1-(2-Methanesulfonyl-acetyl)-pyrrolidin-3-yloxy]-2,3-dihydro-benzo[1,4]oxazin-4-yl}-2-methoxy-nicotinonitrile]	23	353
